Source: patent US9592221B2, “Antibacterial agents: aryl myxopyronin derivatives” (priority 2012, dated 2017)
Converted amounts (≈) assume the structure as drawn.

Columns and labels:
[1] = target: E. coli RNA polymerase σ^70 holoenzyme (Escherichia coli, UniProt P0A8T7+P0A8V2); experiment: Fluorescence-detected RNA polymerase assay, E. coli RNA polymerase; assay type: biochemical; settings: read-out: IC50 E. coli RNAP
[2] = target: S. aureus RNA polymerase core enzyme, S. aureus σ^A (Staphylococcus aureus, UniProt P47768+Q2G0N5); experiment: Fluorescence-detected RNA polymerase assay, S. aureus RNA polymerase; assay type: biochemical; settings: read-out: IC50 S. aureus RNAP
[3] = target: M. tuberculosis RNA polymerase core enzyme, M. tuberculosis σ^A (Mycobacterium tuberculosis, UniProt P9WGY7+P9WGY9); experiment: Fluorescence-detected RNA polymerase assay, M. tuberculosis RNA polymerase; assay type: biochemical; settings: read-out: IC50 M. tuberculosis RNAP
[4] = tested on: Staphylococcus aureus ATCC 12600; experiment: MIC, spiral gradient endpoint assay, S. aureus ATCC 12600; assay type: cell-based; settings: ATCC12600; Staphylococcus aureus ATCC 12600
[5] = tested on: Acinetobacter baumannii ATCC 19606; experiment: MIC, spiral gradient endpoint assay, A. baumannii; assay type: cell-based; settings: ATCC19606; Acinetobacter baumannii ATCC 19606
[6] = tested on: Escherichia coli D21f2tolC; experiment: MIC, spiral gradient endpoint assay, E. coli D21f2tolC; assay type: cell-based; settings: Escherichia coli, D21F2TOLC, read-out: MIC E. coli D21f2toIC
[7] = tested on: Mycobacterium tuberculosis H37Rv; experiment: MIC, microplate Alamar Blue assay, M. tuberculosis; assay type: cell-based
[8] = tested on: Bacillus anthracis Vollum 1b; experiment: microbe, parasite or virus in culture; assay type: cell-based; settings: Bacillus anthracis, VOLLUM1B, read-out: MIC B. anthracis Vollum-1b
[9] = tested on: Francisella tularensis SCHU4; experiment: microbe, parasite or virus in culture; assay type: cell-based; settings: Francisella tularensis, SCHU4, read-out: MIC F. tularensis SCHU4
Yersinia pestis C092 = experiment: microbe, parasite or virus in culture; assay type: cell-based; settings: Yersinia pestis, C092, read-out: MIC Y. pestis C092
Burkholderia mallei CHN7 = experiment: microbe, parasite or virus in culture; assay type: cell-based; settings: Burkholderia mallei, CHN7, read-out: MIC B. mallei CHN7
[10] = tested on: Burkholderia pseudomallei Human/Blood/OH/US/1994; experiment: microbe, parasite or virus in culture; assay type: cell-based; settings: Burkholderia pseudomallei, read-out: MIC B. pseudomallei Human/Blood/OH
Brucella melitensis 16M = experiment: microbe, parasite or virus in culture; assay type: cell-based; settings: Brucella melitensis, 16M, read-out: MIC B. melitensis 16M

E. coli RNA polymerase σ^70 holoenzyme, sequence (P0A8T7 whole entry): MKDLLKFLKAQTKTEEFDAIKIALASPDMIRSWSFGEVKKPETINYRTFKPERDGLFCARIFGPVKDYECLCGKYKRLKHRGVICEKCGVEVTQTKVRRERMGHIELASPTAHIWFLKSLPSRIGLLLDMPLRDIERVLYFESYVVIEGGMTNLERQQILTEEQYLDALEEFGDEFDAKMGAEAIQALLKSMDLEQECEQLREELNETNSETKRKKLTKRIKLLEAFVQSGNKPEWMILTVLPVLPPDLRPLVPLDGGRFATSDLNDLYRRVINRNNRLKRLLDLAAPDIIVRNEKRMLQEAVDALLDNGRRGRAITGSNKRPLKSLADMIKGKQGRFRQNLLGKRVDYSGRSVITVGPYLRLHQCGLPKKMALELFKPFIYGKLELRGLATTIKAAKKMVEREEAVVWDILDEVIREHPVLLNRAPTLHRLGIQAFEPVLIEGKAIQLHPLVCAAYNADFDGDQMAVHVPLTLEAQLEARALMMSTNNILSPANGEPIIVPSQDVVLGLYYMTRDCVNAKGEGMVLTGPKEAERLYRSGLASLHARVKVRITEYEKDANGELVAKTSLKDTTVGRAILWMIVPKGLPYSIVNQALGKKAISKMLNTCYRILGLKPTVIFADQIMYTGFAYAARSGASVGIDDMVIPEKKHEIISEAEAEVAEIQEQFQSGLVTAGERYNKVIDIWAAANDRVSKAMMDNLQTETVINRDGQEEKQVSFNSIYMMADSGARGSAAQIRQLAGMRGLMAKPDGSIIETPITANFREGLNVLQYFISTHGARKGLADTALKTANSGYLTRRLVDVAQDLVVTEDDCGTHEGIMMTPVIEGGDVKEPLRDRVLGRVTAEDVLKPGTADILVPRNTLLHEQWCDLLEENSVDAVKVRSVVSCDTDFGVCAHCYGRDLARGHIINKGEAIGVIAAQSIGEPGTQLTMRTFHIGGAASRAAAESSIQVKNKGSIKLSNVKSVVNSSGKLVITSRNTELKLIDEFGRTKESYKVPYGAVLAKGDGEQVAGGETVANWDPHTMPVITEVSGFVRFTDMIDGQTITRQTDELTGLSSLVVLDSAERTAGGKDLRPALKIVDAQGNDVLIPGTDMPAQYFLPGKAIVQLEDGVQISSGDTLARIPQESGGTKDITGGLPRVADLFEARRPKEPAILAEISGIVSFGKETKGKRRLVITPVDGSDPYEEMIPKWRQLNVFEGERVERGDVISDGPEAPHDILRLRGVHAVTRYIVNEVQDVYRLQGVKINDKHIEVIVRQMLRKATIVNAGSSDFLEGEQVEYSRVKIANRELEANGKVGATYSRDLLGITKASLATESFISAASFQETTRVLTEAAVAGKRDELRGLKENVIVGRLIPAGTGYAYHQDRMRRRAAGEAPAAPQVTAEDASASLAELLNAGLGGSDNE
E. coli RNA polymerase σ^70 holoenzyme, sequence (P0A800 whole entry, further chain): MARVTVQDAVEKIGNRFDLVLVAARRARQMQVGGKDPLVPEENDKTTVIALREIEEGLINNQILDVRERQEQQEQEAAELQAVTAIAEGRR
E. coli RNA polymerase σ^70 holoenzyme, sequence (P0A8V2 whole entry): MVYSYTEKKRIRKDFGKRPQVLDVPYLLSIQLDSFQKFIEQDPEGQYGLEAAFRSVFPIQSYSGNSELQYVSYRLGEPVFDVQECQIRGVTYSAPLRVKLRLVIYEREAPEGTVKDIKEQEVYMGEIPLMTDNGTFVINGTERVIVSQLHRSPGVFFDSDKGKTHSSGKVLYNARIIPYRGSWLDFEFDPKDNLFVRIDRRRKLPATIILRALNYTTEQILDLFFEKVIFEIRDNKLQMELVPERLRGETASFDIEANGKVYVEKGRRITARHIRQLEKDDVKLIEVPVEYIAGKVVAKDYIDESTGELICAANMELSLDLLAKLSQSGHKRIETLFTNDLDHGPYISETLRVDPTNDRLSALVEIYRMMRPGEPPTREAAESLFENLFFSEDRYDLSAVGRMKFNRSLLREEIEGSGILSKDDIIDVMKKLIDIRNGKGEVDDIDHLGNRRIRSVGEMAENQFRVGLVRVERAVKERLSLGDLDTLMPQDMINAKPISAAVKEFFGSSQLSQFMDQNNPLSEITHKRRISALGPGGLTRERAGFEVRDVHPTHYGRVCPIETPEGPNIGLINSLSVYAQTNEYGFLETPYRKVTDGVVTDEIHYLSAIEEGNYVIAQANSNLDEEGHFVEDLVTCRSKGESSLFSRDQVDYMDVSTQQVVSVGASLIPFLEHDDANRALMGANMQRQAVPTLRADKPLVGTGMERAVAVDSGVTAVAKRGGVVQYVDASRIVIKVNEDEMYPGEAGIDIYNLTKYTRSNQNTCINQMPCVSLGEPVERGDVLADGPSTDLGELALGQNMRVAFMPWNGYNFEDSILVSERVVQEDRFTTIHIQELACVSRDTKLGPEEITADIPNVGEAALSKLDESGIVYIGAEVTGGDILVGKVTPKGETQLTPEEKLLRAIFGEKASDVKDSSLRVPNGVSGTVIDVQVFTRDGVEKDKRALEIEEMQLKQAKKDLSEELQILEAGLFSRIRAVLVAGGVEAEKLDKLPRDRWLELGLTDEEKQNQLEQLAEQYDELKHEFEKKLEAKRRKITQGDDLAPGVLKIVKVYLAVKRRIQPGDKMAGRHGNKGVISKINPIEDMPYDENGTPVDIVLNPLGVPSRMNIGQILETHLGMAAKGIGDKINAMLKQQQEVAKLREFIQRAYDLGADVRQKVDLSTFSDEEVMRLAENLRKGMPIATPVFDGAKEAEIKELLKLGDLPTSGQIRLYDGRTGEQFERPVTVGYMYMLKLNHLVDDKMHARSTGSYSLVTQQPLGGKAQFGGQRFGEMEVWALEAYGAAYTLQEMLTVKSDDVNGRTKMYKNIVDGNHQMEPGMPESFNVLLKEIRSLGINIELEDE
E. coli RNA polymerase σ^70 holoenzyme, sequence (P00579 whole entry, further chain): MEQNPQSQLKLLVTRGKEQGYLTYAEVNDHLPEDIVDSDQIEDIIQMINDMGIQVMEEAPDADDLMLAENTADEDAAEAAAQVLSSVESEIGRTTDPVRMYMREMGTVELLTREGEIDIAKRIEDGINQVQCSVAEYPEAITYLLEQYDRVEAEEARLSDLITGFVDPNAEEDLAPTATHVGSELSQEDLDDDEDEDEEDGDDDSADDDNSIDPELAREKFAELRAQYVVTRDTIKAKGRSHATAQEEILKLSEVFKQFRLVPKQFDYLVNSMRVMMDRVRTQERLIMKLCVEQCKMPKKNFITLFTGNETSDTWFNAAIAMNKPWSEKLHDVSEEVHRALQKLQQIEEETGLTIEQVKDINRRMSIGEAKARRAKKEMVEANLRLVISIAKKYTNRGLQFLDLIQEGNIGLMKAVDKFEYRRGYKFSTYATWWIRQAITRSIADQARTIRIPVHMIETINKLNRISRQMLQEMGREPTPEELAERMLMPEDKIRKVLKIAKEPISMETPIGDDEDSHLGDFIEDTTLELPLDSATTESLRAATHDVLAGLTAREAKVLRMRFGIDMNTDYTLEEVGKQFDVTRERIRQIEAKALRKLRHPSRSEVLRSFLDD
E. coli RNA polymerase σ^70 holoenzyme, sequence (P0A7Z4 whole entry, further chain): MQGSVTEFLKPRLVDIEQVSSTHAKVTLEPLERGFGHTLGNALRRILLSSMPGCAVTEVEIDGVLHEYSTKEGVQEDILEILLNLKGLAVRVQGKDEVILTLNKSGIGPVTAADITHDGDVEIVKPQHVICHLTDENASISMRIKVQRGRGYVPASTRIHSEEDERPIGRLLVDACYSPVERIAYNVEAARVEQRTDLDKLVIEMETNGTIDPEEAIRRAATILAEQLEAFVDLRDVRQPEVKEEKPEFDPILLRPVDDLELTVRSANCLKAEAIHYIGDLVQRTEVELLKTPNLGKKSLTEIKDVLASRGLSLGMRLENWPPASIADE

| Compound | IC50 [1] [nM] | IC50 [2] [nM] | IC50 [3] [nM] | MIC [4] [µg/mL] | MIC [5] [µg/mL] | MIC [6] [µg/mL] | MIC [7] [µg/mL] | MIC [8] [µg/mL] | MIC [9] [µg/mL] | MIC (Yersinia pestis C092) [µg/mL] | MIC (Burkholderia mallei CHN7) [µg/mL] | MIC [10] [µg/mL] | MIC (Brucella melitensis 16M) [µg/mL] |
| --- | --- | --- | --- | --- | --- | --- | --- | --- | --- | --- | --- | --- | --- |
| CCCCCCc1ccc(C=C(C)C(=O)c2c(O)cc(C(C)CC/C=C/NC(=O)OC)oc2=O)s1 (mixture of isomers) [APY15, methyl (E)-5-(3-((E/Z)-3-(5-hexylthiophen-2-yl)-2-methylacryloyl)-4-hydroxy-2-oxo-2H-pyran-6-yl)hex-1-enylcarbamate] | 5 | 20 | 200 | 0.9 | 6 | 0.08 | > 50 | 0.4 | 0.4 | 3 | 0.8 | 3 | 0.4 |
| CCCCc1ccc(C=C(C)C(=O)c2c(O)cc(C(C)CC/C=C/NC(=O)OC)oc2=O)s1 (mixture of isomers) [APY16, methyl (E)-5-(3-((E/Z)-3-(5-butylthiophen-2-yl)-2-methylacryloyl)-4-hydroxy-2-oxo-2H-pyran-6-yl)hex-1-enylcarbamate] | 30 | 100 | 300 | 0.6 | 20 | 0.1 | 30 | 2 | 0.8 | 10 | 2 | 6 | 0.8 |
| CCCCCCc1ccc(C=C(C)C(=O)c2c(O)cc(C(C)CC/C=C/NC(=O)OC)oc2=O)o1 (mixture of isomers) [APY17, methyl (E)-5-(3-((E/Z)-3-(5-hexylfuran-2-yl)-2-methylacryloyl)-4-hydroxy-2-oxo-2H-pyran-6-yl)hex-1-enylcarbamate] | 20 | 100 | 900 | 8 | 10 | 0.1 | 10 | 2 | 0.8 | 10 | 3 | 30 | 2 |
| CCCCc1cc(C)c(C=C(C)C(=O)c2c(O)cc(C(C)CC/C=C/NC(=O)OC)oc2=O)s1 (mixture of isomers) [APY75, methyl (E)-5-(3-((E/Z)-3-(5-butyl-3-methylthiophen-2-yl)-2-methylacryloyl)-4-hydroxy-2-oxo-2H-pyran-6-yl)hex-1-enylcarbamate] | 9 | 80 | 60 | 0.3 | 4 | 0.1 | 30 | 0.8 | 10 |  | 6 | 6 | 3 |
| COC(=O)N/C=C/CCC(C)c1cc(O)c(C(=O)C(C)=Cc2sc(CCC(C)C)cc2C)c(=O)o1 (mixture of isomers) [APY76, methyl (E)-5-(3-((E/Z)-3-(5-isopentyl-3-methylthiophen-2-yl)-2-methylacryloyl)-4-hydroxy-2-oxo-2H-pyran-6-yl)hex-1-enylcarbamate] | 3 | 80 | 50 | 0.2 | 4 | 0.09 | 30 | 0.4 | 10 |  | 6 | 6 | 3 |
| CCCCc1ccc2cc(C=C(C)C(=O)c3c(O)cc(C(C)CC/C=C/NC(=O)OC)oc3=O)oc2c1 (mixture of isomers) [APY84, methyl ((1E)-5-(3-(3-(6-butylbenzofuran-2-yl)-2-methylacryloyl)-4-hydroxy-2-oxo-2H-pyran-6-yl)hex-1-en-1-yl)carbamate] | 2 | 60 | 20 | 3 | > 40 | 0.1 | 30 |  |  |  |  |  |  |
| CCCCc1ccc2cc(C=C(C)C(=O)c3c(O)cc(C(C)CC/C=C/NC(=O)OC)oc3=O)sc2c1 (mixture of isomers) [APY86, methyl ((1E)-5-(3-(3-(6-butylbenzo[b]thiophen-2-yl)-2-methylacryloyl)-4-hydroxy-2-oxo-2H-pyran-6-yl)hex-1-en-1-yl)carbamate] | 20 | 300 | 1000 | > 40 | > 40 | 0.2 | > 50 |  |  |  |  |  |  |
| CCCCc1ccc(C=C(C)C(=O)c2c(O)cc(C(C)CC/C=C/NC(=O)OC)oc2=O)c(C)c1 (mixture of isomers) [APY87, methyl ((1E)-5-(3-(3-(4-butyl-2-methylphenyl)-2-methylacryloyl)-4-hydroxy-2-oxo-2H-pyran-6-yl)hex-1-en-1-yl)carbamate] | 10 | 70 | 30 | 1 | > 40 | 0.2 | > 50 |  |  |  |  |  |  |
| COC(=O)N/C=C/CCC(C)c1cc(O)c(C(=O)C(C)=Cc2ccc(CCCCC(F)(F)F)s2)c(=O)o1 (mixture of isomers) [APY98, methyl ((1E)-5-(4-hydroxy-3-(2-methyl-3-(5-(5,5,5-trifluoropentyl)thiophen-2-yl)acryloyl)-2-oxo-2H-pyran-6-yl)hex-1-en-1-yl)carbamate] | 6 |  | 40 | 1 | 20 | 0.1 | 50 |  |  |  |  |  |  |
| COCCCc1ccc(C=C(C)C(=O)c2c(O)cc(C(C)CC/C=C/NC(=O)OC)oc2=O)s1 (mixture of isomers) [APY100, methyl ((1E)-5-(4-hydroxy-3-(3-(5-(3-methoxypropyl)thiophen-2-yl)-2-methylacryloyl)-2-oxo-2H-pyran-6-yl)hex-1-en-1-yl)carbamate] | 60 |  | 1000 | > 40 | > 40 | 1 |  |  |  |  |  |  |  |
| COC(=O)N/C=C/CCC(C)c1cc(O)c(C(=O)C(C)=Cc2ccc(OC)s2)c(=O)o1 (mixture of isomers) [APY101, methyl ((1E)-5-(4-hydroxy-3-(3-(5-methoxythiophen-2-yl)-2-methylacryloyl)-2-oxo-2H-pyran-6-yl)hex-1-en-1-yl)carbamate] | > 6000 |  | > 6000 | > 40 | > 40 | 3 |  |  |  |  |  |  |  |
| CCOc1ccc(C=C(C)C(=O)c2c(O)cc(C(C)CC/C=C/NC(=O)OC)oc2=O)s1 (mixture of isomers) [APY102, methyl ((1E)-5-(3-(3-(5-ethoxythiophen-2-yl)-2-methylacryloyl)-4-hydroxy-2-oxo-2H-pyran-6-yl)hex-1-en-1-yl)carbamate] | 200 |  | 500 | 10 | > 40 | 1 | 30 |  |  |  |  |  |  |
| CCCOc1ccc(C=C(C)C(=O)c2c(O)cc(C(C)CC/C=C/NC(=O)OC)oc2=O)s1 (mixture of isomers) [APY103, methyl ((1E)-5-(4-hydroxy-3-(2-methyl-3-(5-propoxythiophen-2-yl)acryloyl)-2-oxo-2H-pyran-6-yl)hex-1-en-1-yl)carbamate] | 20 |  | 20 | 2 | > 40 | 0.4 | 30 |  |  |  |  |  |  |
| CCCCc1ccc2c(c1)cc(C=C(C)C(=O)c1c(O)cc(C(C)CC/C=C/NC(=O)OC)oc1=O)n2C (mixture of isomers) [APY104, methyl ((1E)-5-(3-(3-(5-butyl-1-methyl-1H-indol-2-yl)-2-methylacryloyl)-4-hydroxy-2-oxo-2H-pyran-6-yl)hex-1-en-1-yl)carbamate] | 8 |  | 200 | 5 | 9 | 0.1 | > 50 |  |  |  |  |  |  |
| COC(=O)N/C=C/CCC(C)c1cc(O)c(C(=O)C(C)=Cc2cc3cc(CCC(C)C)ccc3n2C)c(=O)o1 (mixture of isomers) [APY105, methyl ((1E)-5-(4-hydroxy-3-(3-(5-isopentyl-1-methyl-1H-indol-2-yl)-2-methylacryloyl)-2-oxo-2H-pyran-6-yl)hex-1-en-1-yl)carbamate] | 40 |  | 5000 | > 40 | > 40 | 2 |  |  |  |  |  |  |  |
| COCc1ccc(C=C(C)C(=O)c2c(O)cc(C(C)CC/C=C/NC(=O)OC)oc2=O)s1 (mixture of isomers) [APY106, methyl ((1E)-5-(4-hydroxy-3-(3-(5-(methoxymethyl)thiophen-2-yl)-2-methylacryloyl)-2-oxo-2H-pyran-6-yl)hex-1-en-1-yl)carbamate] | 500 |  | 4000 | > 40 | > 40 | 3 |  |  |  |  |  |  |  |
| COC(=O)N/C=C/CCC(C)c1cc(O)c(C(=O)C(C)=Cc2ccc(CCCCCF)s2)c(=O)o1 (centres unmarked) [APY97, methyl ((1E)-5-(3-(3-(5-(5-fluoropentyl)thiophen-2-yl)-2-methylacryloyl)-4-hydroxy-2-oxo-2H-pyran-6-yl)hex-1-en-1-yl)carbamate] | 20 | 400 |  | 2 (≈ 3.96 µM) | > 40 | 0.1 (≈ 0.198 µM) | > 50 |  |  |  |  |  |  |
